From patent US8039496B2, “Therapeutic compounds” (Allergan, Inc., priority 2007, dated 2011) come the findings set out here.

The structures appear in SMILES notation. Read-outs that look alike come from different tables or passages of the source.

Assay [1] deals with T1, hEP1 (Homo sapiens, UniProt P34995).
T1 sequence (P34995 1-402): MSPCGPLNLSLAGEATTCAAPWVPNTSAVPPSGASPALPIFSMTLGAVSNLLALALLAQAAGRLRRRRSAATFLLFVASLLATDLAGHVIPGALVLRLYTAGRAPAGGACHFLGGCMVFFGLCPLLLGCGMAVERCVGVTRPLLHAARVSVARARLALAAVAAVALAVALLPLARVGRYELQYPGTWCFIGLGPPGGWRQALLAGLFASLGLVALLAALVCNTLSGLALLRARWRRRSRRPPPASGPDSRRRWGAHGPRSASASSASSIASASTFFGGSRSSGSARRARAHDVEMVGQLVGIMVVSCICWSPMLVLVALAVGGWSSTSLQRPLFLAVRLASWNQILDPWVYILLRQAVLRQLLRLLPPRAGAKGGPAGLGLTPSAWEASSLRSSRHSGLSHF
As to the kind of experiment: Other receptors: hEP1. The assay is classed as cell-based. The text has this: (§1) U.S. patent application Ser. No. 11/553,143, filed on Oct. 26, 2006, describes the methods used to obtain the in vitro data in the table below.

Assay [2] addresses T2, hEP3 (Homo sapiens, UniProt P43115).
T2 sequence (P43115 1-390): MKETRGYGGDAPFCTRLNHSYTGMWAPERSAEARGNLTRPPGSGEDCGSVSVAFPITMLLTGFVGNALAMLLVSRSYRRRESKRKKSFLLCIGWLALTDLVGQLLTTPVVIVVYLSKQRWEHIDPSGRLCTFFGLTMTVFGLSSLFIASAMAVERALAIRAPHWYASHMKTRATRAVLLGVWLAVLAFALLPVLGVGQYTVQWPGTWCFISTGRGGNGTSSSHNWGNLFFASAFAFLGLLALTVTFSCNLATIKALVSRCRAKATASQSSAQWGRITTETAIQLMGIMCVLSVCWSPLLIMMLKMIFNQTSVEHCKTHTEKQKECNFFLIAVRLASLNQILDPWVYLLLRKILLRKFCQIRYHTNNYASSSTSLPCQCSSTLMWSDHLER
In words: Other receptors: hEP3 / hEP3A. The format is cell-based.
Description: as §1

For assay [3], the target named is T3, hEP2 (Homo sapiens, UniProt P43116). As to the kind of experiment: hEP2 cAMP functional assay. The format is cell-based.
Description: as §1

Assay [4] addresses T4, hEP4 (Homo sapiens, UniProt P35408). In words: hEP4 binding (Ki).
Description: as §1

For assay [5], the target named is T5, hDP (Homo sapiens, UniProt Q13258).
T5 sequence (Q13258 1-359): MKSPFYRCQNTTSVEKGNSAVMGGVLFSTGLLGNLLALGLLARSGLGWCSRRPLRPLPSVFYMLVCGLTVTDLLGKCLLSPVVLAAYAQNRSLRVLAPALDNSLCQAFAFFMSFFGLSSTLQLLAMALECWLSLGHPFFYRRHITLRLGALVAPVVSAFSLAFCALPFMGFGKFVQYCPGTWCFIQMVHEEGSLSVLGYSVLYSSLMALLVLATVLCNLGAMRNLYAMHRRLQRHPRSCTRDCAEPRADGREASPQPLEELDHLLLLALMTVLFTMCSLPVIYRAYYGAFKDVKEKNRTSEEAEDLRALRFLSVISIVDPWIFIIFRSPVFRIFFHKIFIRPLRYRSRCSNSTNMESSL
In words: Other receptors: hDP. The format is cell-based.
Description: as §1

Assay [6] has as its target T3, hEP2. In words: hEP2 flipr functional assay. The assay is classed as cell-based.
Description: as §1

The target in assay [7] is T3, hEP2. As to the kind of experiment: hEP2 binding (Ki).
Description: as §1

Assay [8] addresses T4, hEP4. As to the kind of experiment: hEP4 flipr functional assay. The format is cell-based.
Description: as §1

The target in assay [9] is T6, hTP (Homo sapiens, UniProt P21731).
T6 sequence (P21731 1-343): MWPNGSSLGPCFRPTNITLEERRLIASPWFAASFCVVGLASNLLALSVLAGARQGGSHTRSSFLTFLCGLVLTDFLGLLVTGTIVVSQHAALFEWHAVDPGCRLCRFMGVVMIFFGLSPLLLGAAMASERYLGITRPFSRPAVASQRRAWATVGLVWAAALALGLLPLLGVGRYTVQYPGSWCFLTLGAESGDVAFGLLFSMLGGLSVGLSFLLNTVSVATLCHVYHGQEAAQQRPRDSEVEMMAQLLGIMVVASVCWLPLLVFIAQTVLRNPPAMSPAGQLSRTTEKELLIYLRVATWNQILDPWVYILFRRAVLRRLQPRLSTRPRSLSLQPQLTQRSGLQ
In words: Other receptors: hTP. The settings on record: the 2nd table. The assay is classed as cell-based.
Description: as §1

[10] abbreviates: the 3rd table, read-out: Other Receptors (ED50 in nM) hEP1.
Where [11] appears, read: the 3rd table, read-out: Other Receptors (ED50 in nM) hEP3A.
Setting [12] is: the 3rd table, read-out: EP2 data cAMP EC50.
The mark [13] stands for this setting: the 3rd table, read-out: EP4 data KI.
Setting [14] is: the 3rd table, read-out: EP2 data flipr EC50.
The mark [15] stands for this setting: the 3rd table, read-out: EP2 data Ki.
[16] abbreviates: the 3rd table, read-out: EP4 data flipr EC50.
The mark [17] stands for this setting: the 2nd table, read-out: Other Receptors hEP3.
Where [18] appears, read: the 2nd table, read-out: hEP2 cAMP EC50.
[19] abbreviates: the 2nd table, read-out: hEP2 flipr EC50.
[20] abbreviates: the 2nd table, read-out: hEP2 Ki.

T3 sequence (P43116 whole entry): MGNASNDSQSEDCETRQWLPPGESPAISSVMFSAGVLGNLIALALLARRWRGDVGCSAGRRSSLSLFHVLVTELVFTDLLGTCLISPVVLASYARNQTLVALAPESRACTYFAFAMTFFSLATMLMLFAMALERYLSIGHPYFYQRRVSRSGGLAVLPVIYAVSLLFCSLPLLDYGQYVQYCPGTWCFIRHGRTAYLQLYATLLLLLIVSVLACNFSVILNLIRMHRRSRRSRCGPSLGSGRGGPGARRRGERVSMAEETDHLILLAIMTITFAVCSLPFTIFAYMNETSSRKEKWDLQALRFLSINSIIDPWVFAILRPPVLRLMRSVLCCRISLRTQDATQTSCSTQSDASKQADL
T4 sequence (P35408 whole entry): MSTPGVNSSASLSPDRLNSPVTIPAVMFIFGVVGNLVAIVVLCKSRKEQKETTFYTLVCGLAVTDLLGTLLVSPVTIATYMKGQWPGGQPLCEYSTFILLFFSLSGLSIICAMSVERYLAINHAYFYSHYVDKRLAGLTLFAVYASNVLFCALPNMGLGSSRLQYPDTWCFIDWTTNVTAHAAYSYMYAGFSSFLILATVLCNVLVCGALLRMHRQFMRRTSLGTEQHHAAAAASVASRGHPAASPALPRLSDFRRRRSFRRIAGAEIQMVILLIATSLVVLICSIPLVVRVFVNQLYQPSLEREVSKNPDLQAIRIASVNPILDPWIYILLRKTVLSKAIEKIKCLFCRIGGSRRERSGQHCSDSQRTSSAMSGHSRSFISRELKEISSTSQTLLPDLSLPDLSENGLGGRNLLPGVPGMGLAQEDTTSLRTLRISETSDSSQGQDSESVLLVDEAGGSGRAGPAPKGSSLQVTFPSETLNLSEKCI

As to `CCc1cccc(OC[C@@H]2[C@@H](CCCc3ccc(C(=O)O)s3)[C@H](Cl)C[C@H]2O)c1` [5-(3-((1R,2S,3R,5R)-5-chloro-2-((3-ethylphenoxy)methyl)-3-hydroxycyclopentyl)propyl)thiophene-2-carboxylic acid], the EC50 in assay [1] (setting [10]) came out at 31500 nM; in assay [2] (setting [11]) it was 3570 nM; in assay [3] (setting [12]), 0.0004 µM; in assay [5] (the 3rd table, read-out: Other Receptors (ED50 in nM) hDP), 4440 nM; in assay [6] (setting [14]), 0.447 µM; in assay [8] (setting [16]), 6.74 µM. For the same compound, the Ki in assay [4] (setting [13]) is 0.214 µM; in assay [7] (setting [15]), 0.004 µM.
For the compound `CCCc1cccc(OC[C@@H]2[C@@H](CCCc3ccc(C(=O)O)s3)[C@H](Cl)C[C@H]2O)c1` [5-(3-((1R,2S,3R,5R)-5-chloro-3-hydroxy-2-((3-propylphenoxy)methyl)cyclopentyl)propyl)thiophene-2-carboxylic acid], the EC50 in assay [1] (setting [10]) was 17900 nM; in assay [2] (setting [11]) it was 6520 nM; in assay [3] (setting [12]), 0.0004 µM; in assay [6] (setting [14]) it was 0.033 µM; in assay [8] (setting [16]), over 10 µM. In addition, the Ki in assay [4] (setting [13]) came out at 0.471 µM; in assay [7] (setting [15]), 0.006 µM.
Consider `COCc1cc(Cl)cc(OC[C@@H]2[C@@H](C/C=C\CCCC(=O)O)[C@H](Cl)C[C@H]2O)c1` [(Z)-7-[(1R,2S,3R,5R)-5-Chloro-2-(3-chloro-5-methoxymethyl-phenoxymethyl)-3-hydroxy-cyclopentyl]-hept-5-enoic acid], for which the EC50 in assay [1] (the 2nd table, read-out: Other Receptors hEP1) was 5180 nM; in assay [2] (setting [17]), 7210 nM; in assay [9], over 10 µM; in assay [3] (setting [18]), 0.008 µM; in assay [6] (setting [19]), 3.41 µM; in assay [8] (the 2nd table, read-out: hEP4 flipr EC50), 4.82 µM. Besides, the Ki in [4] (the 2nd table, read-out: hEP4 Ki) came out at 1.45 µM; in assay [7] (setting [20]), 0.039 µM.
As for `O=C(O)CCC/C=C\C[C@@H]1[C@@H](COc2cc(Cl)cc(CCO)c2)[C@H](O)C[C@H]1Cl` [(Z)-7-{(1R,2S,3R,5R)-5-Chloro-2-[3-chloro-5-(2-hydroxyethyl)-phenoxymethyl]-3-hydroxy-cyclopentyl}-hept-5-enoic acid], the EC50 in assay [2] (setting [17]) is 8830 nM; in [9], over 10 µM; in [3] (setting [18]), 0.007 µM; in assay [5] (the 2nd table, read-out: Other Receptors hDP), over 10000 nM; in assay [6] (setting [19]), 0.644 µM. In addition, in [7] (setting [20]), the Ki was found to be 0.107 µM.

The Ki is a measure of affinity in units of concentration, obtained from inhibition or displacement.
